Legend:
[1] = test system: Tyrosine-protein kinase ABL1 (Homo sapiens), P00519 [Y253F]; settings: Compound concentration 1000.0 nM
[2] = molecular target: ALK tyrosine kinase receptor (Homo sapiens) (UniProt Q9UM73); settings: Compound concentration 1000.0 nM
[3] = molecular target: Calcium/calmodulin-dependent protein kinase type II subunit gamma (Homo sapiens) (UniProt Q13555); settings: Compound concentration 1000.0 nM
[4] = molecular target: Cyclin-dependent kinase 11A (Homo sapiens) (UniProt Q9UQ88); settings: Compound concentration 1000.0 nM
Chain of Cyclin-dependent kinase 11A (Homo sapiens) (Q9UQ88 whole entry): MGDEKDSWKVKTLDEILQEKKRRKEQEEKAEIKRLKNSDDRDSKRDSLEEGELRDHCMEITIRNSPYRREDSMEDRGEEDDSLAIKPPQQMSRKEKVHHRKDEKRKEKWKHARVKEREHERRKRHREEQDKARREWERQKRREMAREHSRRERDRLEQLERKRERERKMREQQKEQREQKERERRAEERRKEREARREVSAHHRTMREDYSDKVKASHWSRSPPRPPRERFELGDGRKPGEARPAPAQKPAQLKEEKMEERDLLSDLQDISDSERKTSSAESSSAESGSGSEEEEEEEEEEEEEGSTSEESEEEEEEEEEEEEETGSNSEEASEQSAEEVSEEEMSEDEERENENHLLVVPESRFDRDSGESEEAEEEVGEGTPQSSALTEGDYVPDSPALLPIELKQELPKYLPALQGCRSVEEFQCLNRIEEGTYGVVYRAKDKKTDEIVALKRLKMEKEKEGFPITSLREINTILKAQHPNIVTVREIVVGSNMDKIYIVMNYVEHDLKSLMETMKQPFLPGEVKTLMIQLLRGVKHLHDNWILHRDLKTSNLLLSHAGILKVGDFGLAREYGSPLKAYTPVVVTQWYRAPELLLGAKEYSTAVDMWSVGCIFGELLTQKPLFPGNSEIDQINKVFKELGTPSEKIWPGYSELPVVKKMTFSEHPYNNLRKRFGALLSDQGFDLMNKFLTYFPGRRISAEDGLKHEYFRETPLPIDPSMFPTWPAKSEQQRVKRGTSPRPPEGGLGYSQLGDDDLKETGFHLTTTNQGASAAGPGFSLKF

[5] = molecular target: Cyclin-dependent kinase 3 (Homo sapiens) (UniProt Q00526); settings: Compound concentration 1000.0 nM
[6] = molecular target: Cyclin-dependent kinase-like 5 (Homo sapiens) (UniProt O76039); settings: Compound concentration 1000.0 nM
[7] = molecular target: Serine/threonine-protein kinase Chk2 (Homo sapiens) (UniProt O96017); settings: Compound concentration 1000.0 nM
Chain of Serine/threonine-protein kinase Chk2 (Homo sapiens) (O96017 whole entry): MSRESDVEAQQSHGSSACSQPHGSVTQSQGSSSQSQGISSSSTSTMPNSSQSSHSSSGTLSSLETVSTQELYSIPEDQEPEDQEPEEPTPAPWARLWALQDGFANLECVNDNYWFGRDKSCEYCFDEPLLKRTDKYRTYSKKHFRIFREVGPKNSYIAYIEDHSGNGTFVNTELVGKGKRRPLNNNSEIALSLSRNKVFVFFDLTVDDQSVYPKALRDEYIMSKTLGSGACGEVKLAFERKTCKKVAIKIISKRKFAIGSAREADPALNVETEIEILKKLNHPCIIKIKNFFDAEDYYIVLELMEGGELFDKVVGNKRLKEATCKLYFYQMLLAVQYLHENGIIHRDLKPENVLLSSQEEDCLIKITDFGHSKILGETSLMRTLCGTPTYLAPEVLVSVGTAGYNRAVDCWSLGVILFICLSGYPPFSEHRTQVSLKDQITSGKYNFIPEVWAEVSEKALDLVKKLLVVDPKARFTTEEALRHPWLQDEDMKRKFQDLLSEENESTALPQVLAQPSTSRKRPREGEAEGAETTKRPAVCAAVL

[8] = molecular target: Dual specificity protein kinase CLK4 (Homo sapiens) (UniProt Q9HAZ1); settings: Compound concentration 1000.0 nM
[9] = molecular target: Death-associated protein kinase 1 (Homo sapiens) (UniProt P53355); settings: Compound concentration 1000.0 nM
[10] = molecular target: Death-associated protein kinase 3 (Homo sapiens) (UniProt O43293); settings: Compound concentration 1000.0 nM
[11] = molecular target: Dual specificity tyrosine-phosphorylation-regulated kinase 1A (Homo sapiens) (UniProt Q13627); settings: Compound concentration 1000.0 nM
[12] = molecular target: Ephrin type-B receptor 2 (Homo sapiens) (UniProt P29323); settings: Compound concentration 1000.0 nM
[13] = molecular target: Tyrosine-protein kinase Fes/Fps (Homo sapiens) (UniProt P07332); settings: Compound concentration 1000.0 nM
[14] = test system: Receptor-type tyrosine-protein kinase FLT3 (Homo sapiens), P36888 [UNDEFINED MUTATION]; settings: Compound concentration 1000.0 nM
[15] = molecular target: Rhodopsin kinase GRK1 (Homo sapiens) (UniProt Q15835); settings: Compound concentration 1000.0 nM
[16] = molecular target: G protein-coupled receptor kinase 4 (Homo sapiens) (UniProt P32298); settings: Compound concentration 1000.0 nM
[17] = molecular target: Insulin-like growth factor 1 receptor (Homo sapiens) (UniProt P08069); settings: Compound concentration 1000.0 nM
[18] = test system: Mast/stem cell growth factor receptor Kit (Homo sapiens), P10721 [D816H]; settings: Compound concentration 1000.0 nM
[19] = molecular target: Serine/threonine-protein kinase LATS2 (Homo sapiens) (UniProt Q9NRM7); settings: Compound concentration 1000.0 nM
[20] = molecular target: MAP kinase-activated protein kinase 5 (Homo sapiens) (UniProt Q8IW41); settings: Compound concentration 1000.0 nM
[21] = molecular target: Serine/threonine-protein kinase MARK1 (Homo sapiens) (UniProt Q9P0L2); settings: Compound concentration 1000.0 nM
[22] = molecular target: Tyrosine-protein kinase Mer (Homo sapiens) (UniProt Q12866); settings: Compound concentration 1000.0 nM
[23] = test system: Hepatocyte growth factor receptor (Homo sapiens), P08581 [M1250T]; settings: Compound concentration 1000.0 nM
[24] = molecular target: Serine/threonine-protein kinase 4 (Homo sapiens) (UniProt Q13043); settings: Compound concentration 1000.0 nM
[25] = molecular target: Serine/threonine-protein kinase 26 (Homo sapiens) (UniProt Q9P289); settings: Compound concentration 1000.0 nM
[26] = molecular target: Myosin light chain kinase family member 4 (Homo sapiens) (UniProt Q86YV6); settings: Compound concentration 1000.0 nM
[27] = molecular target: Serine/threonine-protein kinase 38 (Homo sapiens) (UniProt Q15208); settings: Compound concentration 1000.0 nM
Chain of Serine/threonine-protein kinase 38 (Homo sapiens) (Q15208 2-465 limits assumed): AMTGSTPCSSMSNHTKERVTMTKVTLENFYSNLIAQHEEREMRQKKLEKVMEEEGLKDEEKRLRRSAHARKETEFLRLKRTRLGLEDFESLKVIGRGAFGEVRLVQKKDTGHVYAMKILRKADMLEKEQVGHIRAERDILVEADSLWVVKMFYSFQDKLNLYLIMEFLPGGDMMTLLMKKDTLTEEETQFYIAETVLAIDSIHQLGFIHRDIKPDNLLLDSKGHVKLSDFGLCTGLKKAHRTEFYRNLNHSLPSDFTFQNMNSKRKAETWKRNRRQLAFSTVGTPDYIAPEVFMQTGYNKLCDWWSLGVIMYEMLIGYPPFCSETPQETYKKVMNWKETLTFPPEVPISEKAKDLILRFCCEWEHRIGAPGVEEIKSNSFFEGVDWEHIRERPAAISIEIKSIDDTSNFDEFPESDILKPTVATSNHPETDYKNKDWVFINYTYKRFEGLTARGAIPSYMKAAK

[28] = molecular target: Serine/threonine-protein kinase PAK 6 (Homo sapiens) (UniProt Q9NQU5); settings: Compound concentration 1000.0 nM
[29] = molecular target: Platelet-derived growth factor receptor alpha (Homo sapiens) (UniProt P16234); settings: Compound concentration 1000.0 nM
[30] = molecular target: Cyclin-dependent kinase 14 (Homo sapiens) (UniProt O94921); settings: Compound concentration 1000.0 nM
[31] = molecular target: Serine/threonine-protein kinase PknB (Mycobacterium tuberculosis) (UniProt P9WI81); settings: Compound concentration 1000.0 nM
[32] = molecular target: Serine/threonine-protein kinase D2 (Homo sapiens) (UniProt Q9BZL6); settings: Compound concentration 1000.0 nM
[33] = molecular target: cGMP-dependent protein kinase 1 (Homo sapiens) (UniProt Q13976); settings: Compound concentration 1000.0 nM
Chain of cGMP-dependent protein kinase 1 (Homo sapiens) (Q13976 whole entry): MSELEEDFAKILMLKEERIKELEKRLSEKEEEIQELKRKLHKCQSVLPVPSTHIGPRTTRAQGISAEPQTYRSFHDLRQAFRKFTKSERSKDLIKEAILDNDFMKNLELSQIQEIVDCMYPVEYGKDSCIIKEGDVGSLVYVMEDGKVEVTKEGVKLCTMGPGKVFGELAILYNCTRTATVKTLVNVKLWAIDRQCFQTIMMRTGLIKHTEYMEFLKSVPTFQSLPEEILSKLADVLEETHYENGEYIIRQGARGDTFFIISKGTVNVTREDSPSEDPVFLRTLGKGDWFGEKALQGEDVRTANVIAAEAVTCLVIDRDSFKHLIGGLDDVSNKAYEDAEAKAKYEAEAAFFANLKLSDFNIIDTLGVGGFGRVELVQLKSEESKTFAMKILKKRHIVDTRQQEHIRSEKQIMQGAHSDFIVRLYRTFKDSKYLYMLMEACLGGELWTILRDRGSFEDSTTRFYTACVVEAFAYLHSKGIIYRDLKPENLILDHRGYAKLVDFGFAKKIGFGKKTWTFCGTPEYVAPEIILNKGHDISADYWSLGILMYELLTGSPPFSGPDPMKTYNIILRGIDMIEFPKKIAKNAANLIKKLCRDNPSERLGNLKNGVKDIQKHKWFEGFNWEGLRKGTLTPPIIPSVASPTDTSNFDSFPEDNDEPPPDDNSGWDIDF

[34] = molecular target: Interferon-induced, double-stranded RNA-activated protein kinase (Homo sapiens) (UniProt P19525); settings: Compound concentration 1000.0 nM
[35] = molecular target: Serine/threonine-protein kinase SIK3 (Homo sapiens) (UniProt Q9Y2K2); settings: Compound concentration 1000.0 nM
[36] = molecular target: Proto-oncogene tyrosine-protein kinase receptor Ret (Homo sapiens) (UniProt P07949); settings: Compound concentration 1000.0 nM
[37] = molecular target: Receptor-interacting serine/threonine-protein kinase 4 (Homo sapiens) (UniProt P57078); settings: Compound concentration 1000.0 nM
[38] = molecular target: Serine/threonine-protein kinase Sgk2 (Homo sapiens) (UniProt Q9HBY8); settings: Compound concentration 1000.0 nM
[39] = molecular target: Mitogen-activated protein kinase kinase kinase 7 (Homo sapiens) (UniProt O43318); settings: Compound concentration 1000.0 nM
[40] = molecular target: Tyrosine-protein kinase Tec (Homo sapiens) (UniProt P42680); settings: Compound concentration 1000.0 nM
[41] = molecular target: Serine/threonine-protein kinase TNNI3K (Homo sapiens) (UniProt Q59H18); settings: Compound concentration 1000.0 nM
Chain of Serine/threonine-protein kinase TNNI3K (Homo sapiens) (Q59H18 whole entry): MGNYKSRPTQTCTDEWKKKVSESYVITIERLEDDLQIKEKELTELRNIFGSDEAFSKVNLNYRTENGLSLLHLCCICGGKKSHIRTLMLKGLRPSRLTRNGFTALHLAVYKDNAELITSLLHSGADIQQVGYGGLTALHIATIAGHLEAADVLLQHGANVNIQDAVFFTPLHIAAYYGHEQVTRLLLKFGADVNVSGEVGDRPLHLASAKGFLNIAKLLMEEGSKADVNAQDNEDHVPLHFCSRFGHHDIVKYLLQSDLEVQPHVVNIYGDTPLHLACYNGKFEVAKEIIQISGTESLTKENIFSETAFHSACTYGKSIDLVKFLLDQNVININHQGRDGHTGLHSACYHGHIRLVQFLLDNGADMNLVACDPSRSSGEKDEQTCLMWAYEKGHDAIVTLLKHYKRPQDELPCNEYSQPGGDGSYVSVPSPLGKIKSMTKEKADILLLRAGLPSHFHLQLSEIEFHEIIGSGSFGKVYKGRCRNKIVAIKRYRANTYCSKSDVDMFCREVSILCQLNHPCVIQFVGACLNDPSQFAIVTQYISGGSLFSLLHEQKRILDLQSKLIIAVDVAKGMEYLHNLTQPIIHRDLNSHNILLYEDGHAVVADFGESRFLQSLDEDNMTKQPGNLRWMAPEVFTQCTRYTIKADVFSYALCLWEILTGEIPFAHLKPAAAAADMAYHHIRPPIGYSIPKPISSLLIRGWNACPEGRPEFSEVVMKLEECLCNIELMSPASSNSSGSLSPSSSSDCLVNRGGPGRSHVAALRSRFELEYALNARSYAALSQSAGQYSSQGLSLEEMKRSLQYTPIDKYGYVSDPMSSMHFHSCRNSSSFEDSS

[42] = molecular target: Wee1-like protein kinase 2 (Homo sapiens) (UniProt P0C1S8); settings: Compound concentration 1000.0 nM
[43] = molecular target: 5-hydroxytryptamine receptor 1E (Homo sapiens) (UniProt P28566); settings: Compound concentration 10.0 uM
[44] = molecular target: D(1A) dopamine receptor (Homo sapiens) (UniProt P21728); settings: Compound concentration 10.0 uM
[45] = molecular target: Alpha-2B adrenergic receptor (Homo sapiens) (UniProt P18089); settings: Compound concentration 10.0 uM

Chain of ALK tyrosine kinase receptor (Homo sapiens) (Q9UM73 19-1620 limits assumed): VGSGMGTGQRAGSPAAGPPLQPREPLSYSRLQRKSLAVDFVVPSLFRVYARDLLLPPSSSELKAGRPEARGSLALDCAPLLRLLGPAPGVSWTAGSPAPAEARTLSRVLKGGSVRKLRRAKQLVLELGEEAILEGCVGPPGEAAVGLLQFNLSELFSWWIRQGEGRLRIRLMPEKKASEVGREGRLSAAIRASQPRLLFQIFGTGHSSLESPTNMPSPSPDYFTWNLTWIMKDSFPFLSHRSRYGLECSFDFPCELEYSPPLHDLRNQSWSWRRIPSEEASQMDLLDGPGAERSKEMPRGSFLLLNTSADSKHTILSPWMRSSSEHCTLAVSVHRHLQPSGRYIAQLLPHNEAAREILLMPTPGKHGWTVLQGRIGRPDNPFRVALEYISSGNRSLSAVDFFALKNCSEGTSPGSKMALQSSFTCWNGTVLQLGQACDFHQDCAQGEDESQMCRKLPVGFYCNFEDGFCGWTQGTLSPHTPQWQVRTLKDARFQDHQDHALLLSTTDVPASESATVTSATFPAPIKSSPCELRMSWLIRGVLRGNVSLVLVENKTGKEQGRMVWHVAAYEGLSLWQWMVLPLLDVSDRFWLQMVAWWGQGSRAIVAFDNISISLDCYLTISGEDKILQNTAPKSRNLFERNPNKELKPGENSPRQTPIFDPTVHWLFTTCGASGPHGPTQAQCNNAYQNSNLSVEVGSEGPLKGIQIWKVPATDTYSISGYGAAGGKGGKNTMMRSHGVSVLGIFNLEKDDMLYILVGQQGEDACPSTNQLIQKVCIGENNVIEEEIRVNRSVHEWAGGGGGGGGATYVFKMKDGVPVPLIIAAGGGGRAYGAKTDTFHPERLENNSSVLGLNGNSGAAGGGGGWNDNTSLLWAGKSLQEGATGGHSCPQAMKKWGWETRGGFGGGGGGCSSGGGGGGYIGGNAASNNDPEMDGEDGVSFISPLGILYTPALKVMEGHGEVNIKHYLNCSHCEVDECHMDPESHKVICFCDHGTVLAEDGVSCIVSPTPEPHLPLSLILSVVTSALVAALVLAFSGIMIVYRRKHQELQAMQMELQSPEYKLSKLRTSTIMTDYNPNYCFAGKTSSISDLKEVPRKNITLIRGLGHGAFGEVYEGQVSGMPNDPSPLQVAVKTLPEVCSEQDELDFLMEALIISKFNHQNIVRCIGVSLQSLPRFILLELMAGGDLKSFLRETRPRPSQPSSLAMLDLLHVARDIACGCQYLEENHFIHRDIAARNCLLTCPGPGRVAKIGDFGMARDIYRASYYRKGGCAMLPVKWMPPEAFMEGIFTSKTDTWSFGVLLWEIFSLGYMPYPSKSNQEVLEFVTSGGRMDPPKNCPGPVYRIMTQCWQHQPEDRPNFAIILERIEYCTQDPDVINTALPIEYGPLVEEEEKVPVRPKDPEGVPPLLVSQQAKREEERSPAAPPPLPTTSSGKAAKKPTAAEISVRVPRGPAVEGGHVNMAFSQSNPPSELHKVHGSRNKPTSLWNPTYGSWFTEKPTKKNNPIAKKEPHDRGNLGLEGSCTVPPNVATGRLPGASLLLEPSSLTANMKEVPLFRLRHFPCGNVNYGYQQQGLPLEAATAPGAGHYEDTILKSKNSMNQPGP

O=C(NC[C@@H]1[C@H]2CN(C(=O)OCc3cc(C(F)(F)F)cc(C(F)(F)F)c3)C[C@@H]12)c1ccc2[nH]nnc2c1 [BI 2545]
residual activity [1]: 95% | residual activity [2]: 79% | residual activity [3]: 85% | residual activity [4]: 100% | residual activity [5]: 94% | residual activity [6]: 100% | residual activity [7]: 86% | residual activity [8]: 98% | residual activity [9]: 93% | residual activity [10]: 94% | residual activity [11]: 86% | residual activity [12]: 100% | residual activity [13]: 95% | residual activity [14]: 83% | residual activity [15]: 90% | residual activity [16]: 100% | residual activity [17]: 100% | residual activity [18]: 100% | residual activity [19]: 86% | residual activity [20]: 86% | residual activity [21]: 98% | residual activity [22]: 100% | residual activity [23]: 100% | residual activity [24]: 100% | residual activity [25]: 76% | residual activity [26]: 100% | residual activity [27]: 75% | residual activity [28]: 93% | residual activity [29]: 97% | residual activity [30]: 96% | residual activity [31]: 80% | residual activity [32]: 85% | residual activity [33]: 83% | residual activity [34]: 45% | residual activity [35]: 79% | residual activity [36]: 100% | residual activity [37]: 100% | residual activity [38]: 66% | residual activity [39]: 94% | residual activity [40]: 100% | residual activity [41]: 80% | residual activity [42]: 93% | inhibition [43]: 33.6% | inhibition [44]: 8.68% | inhibition [45]: 25.2%

Cc1nccc(COC(=O)N2C[C@@H]3[C@@H](CNC(=O)c4ccc5[nH]nnc5c4)[C@@H]3C2)n1 [BI 3017]
residual activity [1]: 93% | residual activity [2]: 87% | residual activity [3]: 100% | residual activity [4]: 100% | residual activity [5]: 97% | residual activity [6]: 87% | residual activity [7]: 100% | residual activity [8]: 97% | residual activity [9]: 95% | residual activity [10]: 92% | residual activity [11]: 81% | residual activity [12]: 100% | residual activity [13]: 99% | residual activity [14]: 100% | residual activity [15]: 100% | residual activity [16]: 100% | residual activity [17]: 93% | residual activity [18]: 99% | residual activity [19]: 97% | residual activity [20]: 97% | residual activity [21]: 84% | residual activity [22]: 100% | residual activity [23]: 100% | residual activity [24]: 100% | residual activity [25]: 77% | residual activity [26]: 89% | residual activity [27]: 100% | residual activity [28]: 95% | residual activity [29]: 80% | residual activity [30]: 100% | residual activity [31]: 100% | residual activity [32]: 92% | residual activity [33]: 100% | residual activity [34]: 100% | residual activity [35]: 100% | residual activity [36]: 93% | residual activity [37]: 98% | residual activity [38]: 100% | residual activity [39]: 75% | residual activity [40]: 94% | residual activity [41]: 94% | residual activity [42]: 100% | inhibition [43]: 31.8% | inhibition [44]: -9.63% | inhibition [45]: 1.15%
